According to patent US12630492B2, “Cannabinoid derivatives” (CANOPY GROWTH CORPORATION, priority 2019, dated 2026):
pIC50: −log10 of the molar value. Like-named read-outs stand apart in the source and are kept apart here.

Tests used:
human CB1 receptor = biological target: T1, human CB1 receptor (Homo sapiens, UniProt P21554); experiment: CB1 radioligand competitive binding assay ([3H]CP 55,940 displacement); conditions: for Selectivity CB1: fold difference between CB1 and CB2 binding, printed in column of receptor with higher affinity, 1.00 in both = same affinity
T1 construct: host or cells: CHO-K1 (Chinese hamster ovary) cells, stably transfected; membranes prepared in house

human CB2 receptor = biological target: T2, human CB2 receptor (Homo sapiens, UniProt P34972); experiment: CB2 radioligand competitive binding assay ([3H]CP 55,940 displacement); conditions: for Selectivity CB2: fold difference between CB1 and CB2 binding, printed in column of receptor with higher affinity, 1.00 in both = same affinity
T2 construct: host or cells: CHO-K1 (Chinese hamster ovary) cells, stably transfected; membranes prepared in house

[1] = [3H]CP 55,940 displacement, membranes of CHO-K1 cells expressing human CB1 receptor, read-out: CB1 IC50
[2] = [3H]CP 55,940 displacement, membranes of CHO-K1 cells expressing human CB2 receptor, read-out: CB2 IC50

T1 sequence (P21554 whole entry): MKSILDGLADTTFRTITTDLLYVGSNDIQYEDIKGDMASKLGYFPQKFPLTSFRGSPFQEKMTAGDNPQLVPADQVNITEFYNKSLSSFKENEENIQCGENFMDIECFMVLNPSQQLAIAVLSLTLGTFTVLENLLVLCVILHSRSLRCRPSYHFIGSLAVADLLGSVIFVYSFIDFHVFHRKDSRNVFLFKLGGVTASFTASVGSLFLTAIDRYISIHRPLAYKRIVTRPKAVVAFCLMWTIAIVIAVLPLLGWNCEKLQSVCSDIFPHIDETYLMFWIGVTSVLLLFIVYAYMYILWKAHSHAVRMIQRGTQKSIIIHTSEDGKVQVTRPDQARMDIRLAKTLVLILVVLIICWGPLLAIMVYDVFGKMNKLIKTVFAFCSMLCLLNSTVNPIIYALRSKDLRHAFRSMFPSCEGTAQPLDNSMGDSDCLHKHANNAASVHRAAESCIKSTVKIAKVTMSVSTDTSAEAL
T2 sequence (P34972 whole entry): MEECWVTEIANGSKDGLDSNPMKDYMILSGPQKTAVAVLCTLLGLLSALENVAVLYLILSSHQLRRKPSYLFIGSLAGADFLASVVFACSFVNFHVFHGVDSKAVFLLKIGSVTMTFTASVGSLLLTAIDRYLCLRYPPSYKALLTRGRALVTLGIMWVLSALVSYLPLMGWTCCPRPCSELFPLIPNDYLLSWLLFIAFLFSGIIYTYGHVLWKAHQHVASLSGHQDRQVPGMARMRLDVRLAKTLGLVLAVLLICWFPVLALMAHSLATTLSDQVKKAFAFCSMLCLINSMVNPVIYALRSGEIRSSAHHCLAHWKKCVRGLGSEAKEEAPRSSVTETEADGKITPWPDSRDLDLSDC

SMILES	pIC50 (human CB1 receptor; [1])	pIC50 (human CB2 receptor; [2])	Selectivity CB2 (human CB2 receptor)	Selectivity CB1 (human CB1 receptor)	pIC50 (human CB1 receptor)	pIC50 (human CB2 receptor)
CCCCCc1cc(O)c(C2C=C(C)CCC2)c(OCOC(=O)C(C)(C)C)c1 (stereo not drawn) [Compound 8c, ((6-hydroxy-5′-methyl-4-pentyl-1′,2′,3′,4′-tetrahydro-[1,1′-biphenyl]-2-yl)oxy)methyl pivalate]	6.00 to 7.30	> 7.30	8.85			
C=C(C)C1CCC(C)=CC1c1c(O)cc(CCCCC)cc1OCOC(=O)C(C)(C)C (stereo not drawn) [Compound 8d, ((6-hydroxy-5′-methyl-4-pentyl-2′-(prop-1-en-2-yl)-1′,2′,3′,4′-tetrahydro-[1,1′-biphenyl]-2-yl)oxy)methyl pivalate]	6.00 to 7.30	6.00 to 7.30	1.76			
CCCCCc1cc(O)c(-c2cccc(C)c2)c(OCN(C(=O)OC)c2ccccc2)c1 [Compound 14a, methyl (((6-hydroxy-3′-methyl-4-pentyl-[1,1′-biphenyl]-2-yl)oxy)methyl)(phenyl)carbamate]	5.00 to 6.00	6.00 to 7.30	9.84			
CCCCCc1cc(O)c(C2C=C(C)CCC2)c(OCN(C(=O)OC)c2ccccc2)c1 (stereo not drawn) [Compound 14c, methyl (((6-hydroxy-5′-methyl-4-pentyl-1′,2′,3′,4′-tetrahydro-[1,1′-biphenyl]-2-yl)oxy)methyl)(phenyl)carbamate]	5.00 to 6.00	5.00 to 6.00		1.36		
C=C(C)[C@@H]1CCC(C)=C[C@H]1c1c(O)cc(CCCCC)cc1OCN(C(=O)OC)c1ccccc1 [Compound 14d, methyl (((6-hydroxy-5′-methyl-4-pentyl-2′-(prop-1-en-2-yl)-1′,2′,3′,4′-tetrahydro-[1,1′-biphenyl]-2-yl)oxy)methyl)(phenyl)carbamate]				2.53	6.00 to 7.30	6.00 to 7.30
CCCCCc1cc(O)c(-c2cccc(C)c2)c(OCOCC)c1 [Compound 17a, 6-(ethoxymethoxy)-3′-methyl-4-pentyl-[1,1′-biphenyl]2-ol]	5.00 to 6.00	5.00 to 6.00	5.20			
CCCCCc1cc(O)c(C2C=C(C)CCC2)c(OCOCC)c1 (stereo not drawn) [Compound 17c, 6-(ethoxymethoxy)-5′-methyl-4-pentyl-1′,2′,3′,4′-tetrahydro-[1,1′-biphenyl]-2-ol]	5.00 to 6.00	6.00 to 7.30	2.47			
C=C(C)C1CCC(C)=CC1c1c(O)cc(CCCCC)cc1OCOCC (stereo not drawn) [Compound 17d, 6-(ethoxymethoxy)-5′-methyl-4-pentyl-2′-(prop-1-en-2-yl)-1′,2′,3′,4′-tetrahydro-[1,1′-biphenyl]-2-ol]	5.00 to 6.00	6.00 to 7.30	1.53			
C=C(C)C1CCC(C)=CC1c1c(O)cc(CCCCC)cc1OCOC1CCCCC1 (stereo not drawn) [Compound 18d, 6-((cyclohexyloxy)methoxy)-5′-methyl-4-pentyl-2′-(prop-1-en-2-yl)-1′,2′,3′,4′-tetrahydro-[1,1′-biphenyl]-2-ol]	5.00 to 6.00	6.00 to 7.30	3.23			
C=C(C)C1CCC(C)=CC1c1c(O)cc(C(C)(C)CCCCCC)cc1OCOCC (stereo not drawn) [Compound 19d, 6-(ethoxymethoxy)-5′-methyl-4-(2-methyloctan-2-yl)-2′-(prop-1-en-2-yl)-1′,2′,3′,4′-tetrahydro-[1,1′-biphenyl]-2-ol]	6.00 to 7.30	6.00 to 7.30	1.83			
C=C(C)C1CCC(C)=CC1c1c(O)cc(C(C)(C)CCCCCC)cc1OCN(C(=O)OC)c1ccccc1 (stereo not drawn) [Compound 20d, methyl (((6-hydroxy-5′-methyl-4-(2-methyloctan-2-yl)-2′-(prop-1-en-2-yl)-1′,2′,3′,4′-tetrahydro-[1,1′-biphenyl]-2-yl)oxy)methyl)(phenyl)carbamate]	5.00 to 6.00	6.00 to 7.30	1.94			
C=C(C)C1CCC(C)=CC1c1c(O)cc(C(C)(C)CCCCCC)cc1OCOC(=O)C(C)(C)C (stereo not drawn) [Compound 21d, ((6-hydroxy-5′-methyl-4-(2-methyloctan-2-yl)-2′-(prop-1-en-2-yl)-1′,2′,3′,4′-tetrahydro-[1,1′-biphenyl]-2-yl)oxy)methyl pivalate]	5.00 to 6.00	5.00 to 6.00	1.25			
C=C(C)[C@@H]1CCC(C)=C[C@H]1c1c(O)cc(C(C)(C)CCCCCC)cc1OCOC(=O)OCC [Compound 22d, ethyl (((6-hydroxy-5′-methyl-4-(2-methyloctan-2-yl)-2′-(prop-1-en-2-yl)-1′,2′,3′,4′-tetrahydro-[1,1′-biphenyl]-2-yl)oxy)methyl) carbonate]	6.00 to 7.30	> 7.30	1.67			
C=C(C)[C@@H]1CCC(C)=C[C@H]1c1c(O)cc(CCC)cc1OCOC(=O)C(C)(C)C [Compound 23d, ((6-hydroxy-5′-methyl-2′-(prop-1-en-2-yl)-4-propyl-1′,2′,3′,4′-tetrahydro-[1,1′-biphenyl]-2-yl)oxy)methyl pivalate]	5.00 to 6.00	5.00 to 6.00	2.50			
C=C(C)[C@@H]1CCC(C)=C[C@H]1c1c(O)cc(CCC)cc1OCOC(=O)OCC [Compound 24d, ethyl (((6-hydroxy-5′-methyl-2′-(prop-1-en-2-yl)-4-propyl-1′,2′,3′,4′-tetrahydro-[1,1′-biphenyl]-2-yl)oxy)methyl) carbonate]	5.00 to 6.00	6.00 to 7.30	1.52			
